Measurements taken from patent US11339157B1, “4H-pyrrolo[3,2-c]pyridin-4-one derivatives” (Bayer Aktiengesellschaft, priority 2017, dated 2022).

Columns and labels:
[1] = system: Ba/F3-EGFR-WT cells; assay: Proliferation assay in BA/F3 (wild type) cells (Cell Titer-Glo); type: cell-based; conditions: Mus musculus
Protocol: (§1) Cellular Data Description (WT, insSVD, Ins ASV)
(§2) Plates were incubated at 37° C. for 48 h. Retrovirus was harvested by filtering the media supernatant through a 0.45 μm filter.
(§3) Ba/F3 cells purchased from DSMZ were grown in RPMI+10% FBS+10 ng/mL IL-3 and infected with filtered retroviral supernatant at a 1:2 dilution. Polybrene was added to a concentration of 8 μg/mL, plates were spun for 90 min, and incubated overnight at 37° C. 2 μg/mL puromycin was added to the infected cells 24 h after infection and cells were continually grown in the presence of puromycin and 10 ng/mL IL-3. Following stably expressing Ba/F3 cell lines were generated: Ba/F3-EGFR-WT, Ba/F3-EGFR-insSVD.
(§4) The cells ectopically expressing WT EGFR were plated with 10 ng/mL Millipore Culture grade EGF. The cells ectopically expressing EGFR-insSVD were plated without EGF.
(§5) 100 nL of compound was added to each well using a 100 nL pin head, and plates were incubated at 37° C. for 48 h.
(§6) Cell viability was measured by adding 30 μL of Cell Titer-Glo Luminescent Cell Viability Reagent. Plates were sealed with Perkin Elmer Top-Seal, inverted several times to mix, and immediately centrifuged at 1000 rpm for 2 min. Plates were incubated in low light conditions for 8-10 min and luminescence was measured.

[2] = system: Ba/F3-EGFR-insSVD cells; assay: Proliferation assay in BA/F3 (ins SVD) cells (Cell Titer-Glo); type: cell-based; conditions: Mus musculus
Protocol: as §1, §2, §3, §4, §5, §6

[3] = biological target: EGFR ins SVD (insertion of SVD between D770 and N771) (Homo sapiens, UniProt P00533, INS767SVD); assay: Exon 20-Mutant-EGFR(D770_N771insSVD) kinase assay (TR-FRET); type: biochemical; conditions: Table 9; read-out: mutEGFR (D770_N771insSVD) kinase assay IC50
Protocol: Exon 20-Mutant-EGFR(D770_N771insSVD) Kinase Assay
Inhibitory activity of compounds of the present invention against an Epidermal Growth Factor Receptor (EGFR) with an insertion of the amino acids sequence SVD between D770 and N771 was quantified employing the TR-FRET based kinase activity assay as described in the following paragraphs.
For the assay 50 nl of a 100-fold concentrated solution of the test compound in DMSO was pipetted into either a black low volume 384 well microtiter plate or a black 1536 well microtiter plate (both Greiner Bio-One, Frickenhausen, Germany), 2 μl of a solution of EGFR in aqueous assay buffer [50 mM Hepes pH 7.0, 10 mM MgCl2, 1 mM dithiothreitol, 0.5 mM EGTA, 0.3 mM activated sodium ortho-vanadate, 0.005% (w/v) bovine serum albumin, 0.005% (v/v) Tween-20] were added and the mixture was incubated for 15 min at 22° C. to allow pre binding of the test compounds to the enzyme before the start of the kinase reaction. […] The concentration of EGFR was adjusted depending of the activity of the enzyme lot and was chosen appropriate to have the assay in the linear range, typical concentration was 15 pg/μl. The reaction was stopped by the addition of 3 μl of a solution of HTRF detection reagents (83.3 nM streptavidine-XL665 [Cisbio Bioassays, Codolet, France] and 1.67 nM PT66-Tb-Cryptate, a terbium-cryptate labelled anti-phospho-tyrosine antibody from Cisbio Bioassays [instead of the PT66 Tb cryptate PT66 Eu Chelate from Perkin Elmer can also be used]) in an aqueous EDTA-solution (133.3 mM EDTA, 0.2% (w/v) bovine serum albumin in 50 mM HEPES pH 7.5).
The resulting mixture was incubated 1 h at 22° C. to allow the binding of the biotinylated phosphorylated peptide to the streptavidine-XL665 and the PT66-Tb-Cryptate. Subsequently the amount of phosphorylated substrate was evaluated by measurement of the resonance energy transfer from the PT66-Tb-Cryptate to the streptavidine-XL665.

[4] = BaF3, 48 h, Table 10, plated with 10 ng/mL EGF
[5] = BaF3, 48 h, Table 10, plated without EGF
[6] = BaF3, Table 10, plated with 10 ng/mL EGF, 48 h
[7] = BaF3, Table 10, plated without EGF, 48 h

Sequence of EGFR ins SVD (insertion of SVD between D770 and N771) (P00533 with tags, fused parts or gaps INS767SVD limits assumed): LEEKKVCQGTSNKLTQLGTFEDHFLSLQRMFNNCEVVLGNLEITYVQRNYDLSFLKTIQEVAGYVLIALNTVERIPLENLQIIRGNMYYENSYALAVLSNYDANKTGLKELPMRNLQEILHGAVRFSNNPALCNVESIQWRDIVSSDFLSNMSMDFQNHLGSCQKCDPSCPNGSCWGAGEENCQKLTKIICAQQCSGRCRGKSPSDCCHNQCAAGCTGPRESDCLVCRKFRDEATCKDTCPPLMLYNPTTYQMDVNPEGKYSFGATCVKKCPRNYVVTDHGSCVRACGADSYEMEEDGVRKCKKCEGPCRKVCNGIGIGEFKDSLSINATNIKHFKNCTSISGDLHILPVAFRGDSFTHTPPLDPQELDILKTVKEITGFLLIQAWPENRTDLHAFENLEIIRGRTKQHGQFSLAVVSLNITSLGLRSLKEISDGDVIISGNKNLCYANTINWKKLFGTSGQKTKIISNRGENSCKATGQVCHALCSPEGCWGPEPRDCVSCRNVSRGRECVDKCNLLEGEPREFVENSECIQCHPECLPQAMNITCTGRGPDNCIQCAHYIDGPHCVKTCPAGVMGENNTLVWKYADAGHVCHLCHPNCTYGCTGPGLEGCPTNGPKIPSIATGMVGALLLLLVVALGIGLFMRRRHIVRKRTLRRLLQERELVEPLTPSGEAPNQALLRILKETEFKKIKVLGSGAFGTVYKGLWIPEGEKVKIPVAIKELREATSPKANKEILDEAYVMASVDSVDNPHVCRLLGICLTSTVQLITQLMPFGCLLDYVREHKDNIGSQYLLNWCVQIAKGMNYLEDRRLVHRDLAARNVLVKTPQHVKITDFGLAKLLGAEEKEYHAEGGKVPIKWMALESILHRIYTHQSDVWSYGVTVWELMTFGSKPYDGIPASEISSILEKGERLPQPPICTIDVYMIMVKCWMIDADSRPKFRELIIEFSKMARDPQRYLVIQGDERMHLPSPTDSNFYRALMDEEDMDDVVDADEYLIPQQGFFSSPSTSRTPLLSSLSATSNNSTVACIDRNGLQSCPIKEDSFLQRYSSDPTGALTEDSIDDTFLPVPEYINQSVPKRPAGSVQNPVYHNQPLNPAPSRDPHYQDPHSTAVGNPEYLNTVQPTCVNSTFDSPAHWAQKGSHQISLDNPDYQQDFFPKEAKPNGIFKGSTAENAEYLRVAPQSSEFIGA

CN1CCC[C@H]1COc1cnccc1-c1[nH]c2c(c1Nc1cccc(Cl)c1OC(F)F)C(=O)NCC2 [Example 50, 3-[3-chloro-2-(difluoromethoxy)anilino]-2-(3-{[(2S)-1-methylpyrrolidin-2-yl]methoxy}pyridin-4-yl)-1,5,6,7-tetrahydro-4H-pyrrolo[3,2-c]pyridin-4-one]
IC50 [1, 4]: 2100 nM
IC50 [2, 5]: 60.9 nM
IC50 [3]: 1.26 nM

Cc1c(F)cc(F)cc1Nc1c(-c2ccncc2OC[C@@H]2CCCN2C)[nH]c2c1C(=O)NCC2 [Example 51, 3-(3,5-difluoro-2-methylanilino)-2-(3-{[(2S)-1-methylpyrrolidin-2-yl]methoxy}pyridin-4-yl)-1,5,6,7-tetrahydro-4H-pyrrolo[3,2-c]pyridin-4-one]
IC50 [1, 6]: 3290 nM
IC50 [2, 7]: 107 nM
IC50 [3]: 0.732 nM

Cc1c(Cl)cccc1Nc1c(-c2ccncc2OCCN(C)C)[nH]c2c1C(=O)NCC2 [Example 52, 3-(3-chloro-2-methylanilino)-2-{3[2-(dimethylamino)ethoxy]pyridin-4-yl}1,5,6,7-tetrahydro-4H-pyrrolo[3,2-c]pyridin-4-one]
IC50 [1, 4]: 834 nM
IC50 [2, 5]: 29.1 nM
IC50 [3]: 0.55 nM

COc1c(F)cccc1Nc1c(-c2ccncc2OCCN(C)C)[nH]c2c1C(=O)NCC2 [Example 53, 2-{3-[2-(dimethylamino)ethoxy]pyridin-4-yl}-3-(3-fluoro-2-methoxyanilino)-1,5,6,7-tetrahydro-4H-pyrrolo[3,2-c]pyridin-4-one]
IC50 [1, 4]: 804 nM
IC50 [2, 5]: 31.1 nM
IC50 [3]: 0.332 nM

COc1c(Cl)cccc1Nc1c(-c2ccncc2OCCN(C)C)[nH]c2c1C(=O)NCC2 [Example 54, 3-(3-chloro-2-methoxyanilino)-2-{3-[2-(dimethylamino)ethoxy]pyridin-4-yl}-1,5,6,7-tetrahydro-4H-pyrrolo[3,2-c]pyridin-4-one]
IC50 [1, 4]: 1300 nM
IC50 [2, 5]: 37.5 nM
IC50 [3]: 0.912 nM

Cc1c(F)cc(F)cc1Nc1c(-c2ccncc2OCCN(C)C)[nH]c2c1C(=O)NCC2 [Example 55, 3-(3,5-difluoro-2-methylanilino)-2-{3-[2-(dimethylamino)ethoxy]pyridin-4-yl}-1,5,6,7-tetrahydro-4H-pyrrolo[3,2-c]pyridin-4-one]
IC50 [1, 4]: 2830 nM
IC50 [2, 5]: 303 nM
IC50 [3]: 0.465 nM

Cc1c(F)cccc1Nc1c(-c2ccncc2OCCN(C)C)[nH]c2c1C(=O)NCC2 [Example 56, 2-{3-[2-(dimethylamino)ethoxy]pyridin-4-yl}-3-(3-fluoro-2-methylanilino)-1,5,6,7-tetrahydro-4H-pyrrolo[3,2-c]pyridin-4-one]
IC50 [1, 4]: 1900 nM
IC50 [2, 5]: 242 nM
IC50 [3]: 0.562 nM

COc1c(F)cccc1Nc1c(-c2ccncc2OCCC(C)(C)OC)[nH]c2c1C(=O)NCC2 [Example 57, 3-(3-fluoro-2-methoxyanilino)-2-[3-(3-methoxy-3-methylbutoxy)pyridin-4-yl]1,5,6,7-tetrahydro-4H-pyrrolo[3,2-c]pyridin-4-one]
IC50 [1, 4]: 535 nM
IC50 [2, 5]: 14.7 nM
IC50 [3]: 0.228 nM

CCOC(C)(C)COc1cnccc1-c1[nH]c2c(c1Nc1cccc(F)c1OC)C(=O)NCC2 [Example 58, 2-[3-(2-ethoxy-2-methylpropoxy)pyridin-4-yl]-3-(3-fluoro-2-methoxyanilino)-1,5,6,7-tetrahydro-4H-pyrrolo[3,2-c]pyridin-4-one]
IC50 [1, 4]: 561 nM
IC50 [2, 5]: 18.6 nM
IC50 [3]: 0.113 nM

COc1c(Cl)cccc1Nc1c(-c2ccncc2OCC(C)(C)O)[nH]c2c1C(=O)NCC2 [Example 59, 3-(3-chloro-2-methoxyanilino)-2-[3-(2-hydroxy-2-methylpropoxy)pyridin-4-yl]-1,5,6,7-tetrahydro-4H-pyrrolo[3,2-c]pyridin-4-one]
IC50 [1, 4]: 542 nM
IC50 [2, 5]: 17.7 nM
IC50 [3]: < 0.0725 nM

Cc1c(Cl)cccc1Nc1c(-c2ccncc2OCC(C)(C)N(C)C)[nH]c2c1C(=O)NCC2 [Example 60, 3-(3-chloro-2-methylanilino)-2-{3-[2-(dimethylamino)-2-methylpropoxy]pyridin-4-yl}-1,5,6,7-tetrahydro-4H-pyrrolo[3,2-c]pyridin-4-one]
IC50 [1, 4]: 1750 nM
IC50 [2, 5]: 38.6 nM
IC50 [3]: 0.695 nM

Cc1c(F)cccc1Nc1c(-c2ccncc2OCC(C)(C)N(C)C)[nH]c2c1C(=O)NCC2 [Example 61, 2-{3-[2-(dimethylamino)-2-methylpropoxy]pyridin-4-yl}-3-(3-fluoro-2-methylanilino)-1,5,6,7-tetrahydro-4H-pyrrolo[3,2-c]pyridin-4-one]
IC50 [1, 4]: 1460 nM
IC50 [2, 5]: 88.9 nM
IC50 [3]: 1.12 nM

Cc1c(F)cc(F)cc1Nc1c(-c2ccncc2OCC(C)(C)N(C)C)[nH]c2c1C(=O)NCC2 [Example 62, 3-(3,5-difluoro-2-methylanilino)-2-{3-[2-(dimethylamino)-2-methylpropoxy]pyridin-4-yl}-1,5,6,7-tetrahydro-4H-pyrrolo[3,2-c]pyridin-4-one]
IC50 [1, 4]: 2760 nM
IC50 [2, 5]: 166 nM
IC50 [3]: 0.663 nM

COc1c(Cl)cccc1Nc1c(-c2ccncc2OCC2CCCCN2C)[nH]c2c1C(=O)NCC2 (stereo not drawn) [Example 63, 3-(3-chloro-2-methoxyanilino)-2-(3-{[1-methylpiperidin-2-yl]methoxy}pyridin-4-yl)-1,5,6,7-tetrahydro-4H-pyrrolo[3,2-c]pyridin-4-one]
IC50 [1, 4]: 485 nM
IC50 [2, 5]: 12.3 nM
IC50 [3]: 0.509 nM

CN(C)CCOc1cnccc1-c1[nH]c2c(c1Nc1cccc(F)c1OC(F)F)C(=O)NCC2 [Example 64, 3-[2-(difluoromethoxy)-3-fluoroanilino]-2-{3-[2-(dimethylamino)ethoxy]pyridin-4-yl}-1,5,6,7-tetrahydro-4H-pyrrolo[3,2-c]pyridin-4-one]
IC50 [1, 4]: 1890 nM
IC50 [2, 5]: 121 nM
IC50 [3]: 0.443 nM

COc1c(Cl)cccc1Nc1c(-c2ccncc2OCC2CCCCO2)[nH]c2c1C(=O)NCC2 (stereo not drawn) [Example 68]
IC50 [1, 4]: 109 nM
IC50 [2, 5]: 2.94 nM
IC50 [3]: 0.115 nM

O=C1NCCc2[nH]c(-c3ccncc3OCC3CCCCO3)c(Nc3cccc(Cl)c3Cl)c21 (stereo not drawn) [Example 69, 3-(2,3-dichloroanilino)-2-{3-[(oxan-2-yl)methoxy]pyridin-4-yl}-1,5,6,7-tetrahydro-4H-pyrrolo[3,2-c]pyridin-4-one]
IC50 [1, 4]: 290 nM
IC50 [2, 5]: 12.4 nM
IC50 [3]: 0.106 nM

O=C1NCCc2[nH]c(-c3ccncc3OC[C@@H]3CCCO3)c(Nc3cccc(Cl)c3Cl)c21 [Example 70, 3-(2,3-dichloroanilino)-2-(3-{[(2S)-oxolan-2-yl]methoxy}pyridin-4-yl)-1,5,6,7-tetrahydro-4H-pyrrolo[3,2-c]pyridin-4-one]
IC50 [1, 4]: 297 nM
IC50 [2, 5]: 16.1 nM
IC50 [3]: 0.0918 nM

CN1CCC[C@H]1COc1cnccc1-c1[nH]c2c(c1Nc1cccc(Cl)c1Cl)C(=O)NCC2 [Example 71, 3-(2,3-dichloroanilino)-2-(3-{[(2S)-1-methylpyrrolidin-2-yl]methoxy}pyridin-4-yl)-1,5,6,7-tetrahydro-4H-pyrrolo[3,2-c]pyridin-4-one]
IC50 [1, 4]: 781 nM
IC50 [2, 5]: 20.2 nM
IC50 [3]: 0.258 nM

COc1c(F)cccc1Nc1c(-c2ccncc2OCC(C)(C)O)[nH]c2c1C(=O)NCC2 [Example 72, 3-(3-fluoro-2-methoxyanilino)-2-[3-(2-hydroxy-2-methylpropoxy)pyridin-4-yl]-1,5,6,7-tetrahydro-4H-pyrrolo[3,2-c]pyridin-4-one]
IC50 [1, 4]: 1010 nM
IC50 [2, 5]: 67.7 nM
IC50 [3]: 0.144 nM

CC(C)(O)COc1cnccc1-c1[nH]c2c(c1Nc1cccc(F)c1OC(F)F)C(=O)NCC2 [Example 73, 3-[2-(difluoromethoxy)-3-fluoroanilino]-2-[3-(2-hydroxy-2-methylpropoxy)pyridin-4-yl]-1,5,6,7-tetrahydro-4H-pyrrolo[3,2-c]pyridin-4-one]
IC50 [1, 4]: 2520 nM
IC50 [2, 5]: 416 nM
IC50 [3]: 0.167 nM

COc1c(F)cccc1Nc1c(-c2ccncc2OCC(C)(C)N(C)C)[nH]c2c1C(=O)NCC2 [Example 74, 2-{3-[2-(dimethylamino)-2-methylpropoxy]pyridin-4-yl}-3-(3-fluoro-2-methoxyanilino)-1,5,6,7-tetrahydro-4H-pyrrolo[3,2-c]pyridin-4-one]
IC50 [1, 4]: 4070 nM
IC50 [2, 5]: 97.9 nM
IC50 [3]: 0.865 nM

COc1c(F)cccc1Nc1c(-c2ccncc2OCC(C)(C)N2CCOCC2)[nH]c2c1C(=O)NCC2 [Example 75, 3-(3-fluoro-2-methoxyanilino)-2-{3-[2-methyl-2-(morpholin-4-yl)propoxy]pyridin-4-yl}-1,5,6,7-tetrahydro-4H-pyrrolo[3,2-c]pyridin-4-one]
IC50 [1, 6]: 2360 nM
IC50 [2, 7]: 98 nM
IC50 [3]: 0.903 nM

CC(C)(COc1cnccc1-c1[nH]c2c(c1Nc1cccc(F)c1OC(F)F)C(=O)NCC2)N1CCOCC1 [Example 76, 3-[2-(difluoromethoxy)-3-fluoroanilino]-2-{3-[2-methyl-2-(morpholin-4-yl)propoxy]pyridin-4-yl}-1,5,6,7-tetrahydro-4H-pyrrolo[3,2-c]pyridin-4-one]
IC50 [1, 6]: 2090 nM
IC50 [2, 7]: 250 nM
IC50 [3]: 0.845 nM
